Results reported in paper PMC6964506 (ACS Omega, 2019).

What was measured:
H-RasG12V = test: H-Ras nanoclustering-FRET; assay type: cell-based; conditions: HEK cells, 5 μM (FTI-277 0.2 μM), 24 h
K-RasG12V = test: K-Ras nanoclustering-FRET; assay type: cell-based; conditions: HEK cells, 24 h; for dose-dependent effect on K-RasG12V nanoclustering-FRET: various concentrations, compared with 24 and 25
PDE6D/avi-K-RasFMe = PDE6D/avi-K-RasFMe (Homo sapiens, UniProt O43924); test: SPR inhibition of PDE6D binding to captured avi-K-RasFMe
[1] = biological target: K-RasG12V/PDE6D interaction (Homo sapiens, UniProt O43924); test: PDE6D/K-Ras interaction by FLIM-FRET in HEK cells; assay type: cell-based; conditions: 5 μM, 24 h
Hs 578T cells = test: Mammosphere formation assay; assay type: cell-based; conditions: 6 days suspension then 72 h with 5 μM
MDA-MB-231 cells = test: Mammosphere formation assay; assay type: cell-based; conditions: MDA-MB-231, 6 days suspension then 72 h with 5 μM
A375 cells = test: Tumorosphere viability, drug sensitivity score; assay type: cell-based; conditions: B-RafV600E mutant A375 spheroids, 72 h, 0 to 20 μM
NCI-H358 cells = test: Tumorosphere viability, drug sensitivity score; assay type: cell-based; conditions: NCI-H358 tumorospheres, 72 h, 0 to 20 μM

Sequence of K-RasG12V/PDE6D interaction (O43924 whole entry): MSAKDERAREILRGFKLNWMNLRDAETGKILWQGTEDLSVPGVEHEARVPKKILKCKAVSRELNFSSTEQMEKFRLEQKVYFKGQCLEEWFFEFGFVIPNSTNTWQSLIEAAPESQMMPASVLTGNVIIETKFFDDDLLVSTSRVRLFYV
Sequence of PDE6D/avi-K-RasFMe (O43924 whole entry): as above

CCOC(=O)C(C)(COP(=O)(OC)OCCCCCCNC(=O)c1ccc(C(=O)OC)c(N)c1)C(=O)CSC(C)=O (stereo not drawn) [compound 22]
effect on H-RasG12V nanoclustering-FRET (H-RasG12V): No effect
dose-dependent effect on K-RasG12V nanoclustering-FRET (K-RasG12V): significant dose-dependent reduction
IC50 (PDE6D/avi-K-RasFMe): 10.27 ± 0.03 µM
Kd (PDE6D/avi-K-RasFMe): 7.62 ± 0.02 µM
fold lower affinity than analogue 23 (PDE6D/avi-K-RasFMe; SPR): 2.6 fold

O=C(NCCCCCCO)c1cc2ccccc2oc1=O [compound 14]
effect on K-RasG12V/PDE6D FLIM-FRET [1]: did not block the interaction
IC50 (PDE6D/avi-K-RasFMe): 18.9 ± 0.2 µM
Kd (PDE6D/avi-K-RasFMe): 14.1 ± 0.2 µM

CCOC(=O)C(C)(COP(=O)(OC)OCC1CCC(CNC(=O)c2cc3ccccc3oc2=O)CC1)C(=O)CSC(C)=O (stereo not drawn) [compound 17]
effect on mammosphere formation (SFE) (Hs 578T cells): no significant effect
effect on K-RasG12V/PDE6D FLIM-FRET [1]: lacked in cellulo activity
effect on mammosphere formation (SFE) (MDA-MB-231 cells): no significant effect
IC50 (PDE6D/avi-K-RasFMe): 6.7 ± 0.1 µM
Kd (PDE6D/avi-K-RasFMe): 4.97 ± 0.07 µM

COC(=O)c1ccc(C(=O)NCCCCOP(=O)(OC)OCC(C)(C)C(=O)CSC(C)=O)cc1N (stereo not drawn) [compound 25]
effect on mammosphere formation (SFE) (Hs 578T cells): inactive
effect on K-RasG12V/PDE6D FLIM-FRET [1]: performed better than 24
effect on mammosphere formation (SFE) (MDA-MB-231 cells): inactive

c1ccc(Cn2c(-c3ccc(OC[C@H](C4CCNCC4)n4c(-c5ccccc5)nc5ccccc54)cc3)nc3ccccc32)cc1 [Deltarasin, reference compound]
activity on spheroid viability (DSS) (A375 cells): equally high activity in both cell lines
effect on H-RasG12V nanoclustering-FRET (H-RasG12V): reduced FRET of both Ras isoforms about equally
effect on K-RasG12V nanoclustering-FRET (K-RasG12V; 5 μM (FTI-277 0.2 μM)): reduced FRET of both Ras isoforms about equally
IC50 (K-RasG12V; read-out: IC50 K-Ras nanoclustering-FRET (mean ± SEM), n = 3): 0.7 ± 0.4 µM
activity on spheroid viability (DSS) (NCI-H358 cells): equally high activity in both cell lines

C=CC(=O)N1CCN(c2ncnc3c(F)c(-c4c(O)cccc4F)c(Cl)cc23)CC1 [ARS-1620]
activity on spheroid viability (DSS) (A375 cells): inactive

COC(=O)c1ccc(C(=O)NCCCCCCOP(=O)(OC)OCC(C)(C)C(=O)CSC(C)=O)cc1N (stereo not drawn) [compound 23]
activity on spheroid viability (DSS) (A375 cells): inactive
effect on mammosphere formation (SFE) (Hs 578T cells): but not H-RasG12V-mutant Hs 578T-mammosphere formation
effect on H-RasG12V nanoclustering-FRET (H-RasG12V): No effect
dose-dependent effect on K-RasG12V nanoclustering-FRET (K-RasG12V): significant dose-dependent reduction
effect on K-RasG12V/PDE6D FLIM-FRET [1]: performed as well as 15 and somewhat better than 22
